Assay results reported in patent publication US20240050428A1 (Cullgen (Shanghai), Inc., priority 2020, published 2024).
Where two headings read alike, the source gives them in different places.

Key:
[1] = tested on: MV4;11 cells; assay: Cell viability assay (CellTiter-Glo) in MV4;11 cells, alone or with gilteritinib; format: cell-based; details: Homo sapiens, MV4-11, 72 h, MV4;11 cells, three days, CellTiter-Glo, read-out: MV4
[2] = tested on: MOLM-13 cells; assay: Cell viability assay (CellTiter-Glo) in MOLM-13 cells, alone or with gilteritinib; format: cell-based; details: Homo sapiens, MOLM-13, 72 h, MOLM-13 cells, three days, CellTiter-Glo
[3] = compound alone (without gilteritinib), 11 IC50
[4] = with gilteritinib 10 nM, 11 IC50 gilteritinib
[5] = compound alone (without gilteritinib), read-out: MOLM-13 IC50
[6] = with gilteritinib 20 nM, read-out: MOLM-13 IC50 gilteritinib

Row | SMILES | IC50 [1, 3] | IC50 [1, 4] | IC50 [2, 5] | IC50 [2, 6]
1 | Cc1ccc(-c2cn([C@H]3C[C@H](CNc4ccc5c(c4)C(=O)N(C4CCC(=O)NC4=O)C5=O)C3)nc2C2CC2)nc1 (stereo partly drawn) [GS-256, 5-(((trans-3-(3-Cyclopropyl-4-(5-methylpyridin-2-yl)-1H-pyrazol-1-yl)cyclobutyl)methyl)amino)-2-(2,6-dioxopiperidin-3-yl)isoindoline-1,3-dione] | 10 to 100 nM | < 10 nM | 100 to 1000 nM | < 10 nM
2 | O=C1CCC(N2C(=O)c3ccc(NC[C@H]4C[C@H](n5cc(-c6cccc(N7CCC7)n6)c(C6CC6)n5)C4)cc3C2=O)C(=O)N1 (stereo partly drawn) [GS-257, 5-(((trans-3-(4-(6-(Azetidin-1-yl)pyridin-2-yl)-3-cyclopropyl-1H-pyrazol-1-yl)cyclobutyl)methyl)amino)-2-(2,6-dioxopiperidin-3-yl)isoindoline-1,3-dione] | < 10 nM | < 10 nM | 10 to 100 nM | < 10 nM
3 | O=C1CCC(N2C(=O)c3ccc(NC[C@H]4C[C@H](n5cc(-c6cccc(NC7CCC7)n6)c(C6CC6)n5)C4)cc3C2=O)C(=O)N1 (stereo partly drawn) [GS-258, 5-(((trans-3-(4-(6-(Cyclobutylamino)pyridin-2-yl)-3-cyclopropyl-1H-pyrazol-1-yl)cyclobutyl)methyl)amino)-2-(2,6-dioxopiperidin-3-yl)isoindoline-1,3-dione] | 100 to 1000 nM | 10 to 100 nM | > 1000 nM | 10 to 100 nM
4 | CN(C)c1cccc(-c2cn([C@H]3C[C@H](CNc4ccc5c(c4)C(=O)N(C4CCC(=O)NC4=O)C5=O)C3)nc2C2CC2)n1 (stereo partly drawn) [GS-259, 5-(((trans-3-(3-Cyclopropyl-4-(6-(dimethylamino)pyridin-2-yl)-1H-pyrazol-1-yl)cyclobutyl)methyl)amino)-2-(2,6-dioxopiperidin-3-yl)isoindoline-1,3-dione] | < 10 nM | < 10 nM | 10 to 100 nM | < 10 nM
5 | O=C1CCC(N2C(=O)c3ccc(NC[C@H]4C[C@H](n5cc(-c6cccc(NC7COC7)n6)c(C6CC6)n5)C4)cc3C2=O)C(=O)N1 (stereo partly drawn) [GS-260, 5-(((trans-3-(3-Cyclopropyl-4-(6-(oxetan-3-ylamino)pyridin-2-yl)-1H-pyrazol-1-yl)cyclobutyl)methyl)amino)-2-(2,6-dioxopiperidin-3-yl)isoindoline-1,3-dione] | > 1000 nM | > 1000 nM | 100 to 1000 nM | > 1000 nM
6 | Cc1cccnc1-c1cn([C@H]2C[C@H](CNc3ccc4c(c3)C(=O)N(C3CCC(=O)NC3=O)C4=O)C2)nc1C1CC1 (stereo partly drawn) [GS-261, 5-(((trans-3-(3-Cyclopropyl-4-(3-methylpyridin-2-yl)-1H-pyrazol-1-yl)cyclobutyl)methyl)amino)-2-(2,6-dioxopiperidin-3-yl)isoindoline-1,3-dione] | < 10 nM | < 10 nM | < 10 nM | < 10 nM
7 | COc1cccnc1-c1cn([C@H]2C[C@H](CNc3ccc4c(c3)C(=O)N(C3CCC(=O)NC3=O)C4=O)C2)nc1C1CC1 (stereo partly drawn) [GS-262, 5-(((trans-3-(3-Cyclopropyl-4-(3-methoxypyridin-2-yl)-1H-pyrazol-1-yl)cyclobutyl)methyl)amino)-2-(2,6-dioxopiperidin-3-yl)isoindoline-1,3-dione] | < 10 nM | < 10 nM | < 10 nM | < 10 nM
8 | CNc1cccc(-c2cn([C@H]3C[C@H](CNc4ccc5c(c4)C(=O)N(C4CCC(=O)NC4=O)C5=O)C3)nc2C2CC2)n1 (stereo partly drawn) [GS-263, 5-(((trans-3-(3-Cyclopropyl-4-(6-(methylamino)pyridin-2-yl)-1H-pyrazol-1-yl)cyclobutyl)methyl)amino)-2-(2,6-dioxopiperidin-3-yl)isoindoline-1,3-dione] | 100 to 1000 nM | 10 to 100 nM | 100 to 1000 nM | 10 to 100 nM
9 | O=C1CCC(N2C(=O)c3ccc(NC[C@H]4C[C@H](n5cc(-c6cc(Cl)ccn6)c(C6CC6)n5)C4)cc3C2=O)C(=O)N1 (stereo partly drawn) [GS-264, 5-(((trans-3-(4-(4-Chloropyridin-2-yl)-3-cyclopropyl-1H-pyrazol-1-yl)cyclobutyl)methyl)amino)-2-(2,6-dioxopiperidin-3-yl)isoindoline-1,3-dione] | 10 to 100 nM | < 10 nM | 10 to 100 nM | < 10 nM
10 | O=C1CCC(N2C(=O)c3ccc(NC[C@H]4C[C@H](n5cc(-c6ccncc6)c(C6CC6)n5)C4)cc3C2=O)C(=O)N1 (stereo partly drawn) [GS-265, 5-(((trans-3-(3-Cyclopropyl-4-(pyridin-4-yl)-1H-pyrazol-1-yl)cyclobutyl)methyl)amino)-2-(2,6-dioxopiperidin-3-yl)isoindoline-1,3-dione] | > 1000 nM | 100 to 1000 nM | > 1000 nM | 100 to 1000 nM
11 | O=C1CCC(N2C(=O)c3ccc(NC[C@H]4C[C@H](n5cc(-c6cnc7c(N8CCOCC8)cccc7n6)c(C6CC6)n5)C4)cc3C2=O)C(=O)N1 (stereo partly drawn) [GS-266, 5-(((trans-3-(3-Cyclopropyl-4-(5-morpholinoquinoxalin-2-yl)-1H-pyrazol-1-yl)cyclobutyl)methyl)amino)-2-(2,6-dioxopiperidin-3-yl)isoindoline-1,3-dione] | < 10 nM | < 10 nM | < 10 nM | < 10 nM
12 | CN1CCN(c2cccc3nc(-c4cn([C@H]5C[C@H](CNc6ccc7c(c6)C(=O)N(C6CCC(=O)NC6=O)C7=O)C5)nc4C4CC4)cnc23)CC1 (stereo partly drawn) [GS-267, 5-(((trans-3-(3-Cyclopropyl-4-(5-(4-methylpiperazin-1-yl)quinoxalin-2-yl)-1H-pyrazol-1-yl)cyclobutyl)methyl)amino)-2-(2,6-dioxopiperidin-3-yl)isoindoline-1,3-dione] | < 10 nM | < 10 nM | < 10 nM | < 10 nM
13 | O=C1CCC(N2C(=O)c3ccc(NC[C@H]4C[C@H](n5cc(-c6cccnc6)c(C6CC6)n5)C4)cc3C2=O)C(=O)N1 (stereo partly drawn) [GS-268, 5-(((trans-3-(3-Cyclopropyl-4-(pyridin-3-yl)-1H-pyrazol-1-yl)cyclobutyl)methyl)amino)-2-(2,6-dioxopiperidin-3-yl)isoindoline-1,3-dione] | 100 to 1000 nM | 10 to 100 nM | 100 to 1000 nM | 10 to 100 nM
14 | O=C1CCC(N2C(=O)c3ccc(NC[C@H]4C[C@H](n5cc(-c6cccc(NC7CC(O)C7)n6)c(C6CC6)n5)C4)cc3C2=O)C(=O)N1 (stereo partly drawn) [GS-269, 5-(((trans-3-(3-Cyclopropyl-4-(6-((3-hydroxycyclobutyl)amino)pyridin-2-yl)-1H-pyrazol-1-yl)cyclobutyl)methyl)amino)-2-(2,6-dioxopiperidin-3-yl)isoindoline-1,3-dione] | > 1000 nM | 100 to 1000 nM | > 1000 nM | > 1000 nM
15 | O=C1CCC(N2C(=O)c3ccc(NC[C@H]4C[C@H](n5cc(-c6cccc(=O)[nH]6)c(C6CC6)n5)C4)cc3C2=O)C(=O)N1 (stereo partly drawn) [GS-270, 5-(((trans-3-(3-Cyclopropyl-4-(6-oxo-1,6-dihydropyridin-2-yl)-1H-pyrazol-1-yl)cyclobutyl)methyl)amino)-2-(2,6-dioxopiperidin-3-yl)isoindoline-1,3-dione] | > 1000 nM | > 1000 nM | > 1000 nM | > 1000 nM
16 | O=C(Cn1cc(-c2cnc3ccccc3n2)c(C2CC2)n1)NCc1ccc2c(c1)C(=O)N(C1CCC(=O)NC1=O)C2=O (stereo not drawn) [GS-271, 2-(3-Cyclopropyl-4-(quinoxalin-2-yl)-1H-pyrazol-1-yl)-N-((2-(2,6-dioxopiperidin-3-yl)-1,3-dioxoisoindolin-5-yl)methyl)acetamide] | 10 to 100 nM | 10 to 100 nM | 100 to 1000 nM | 10 to 100 nM
17 | O=C1CCC(N2C(=O)c3ccc(NC[C@H]4C[C@H](n5cc(-c6ncccc6Cl)c(C6CC6)n5)C4)cc3C2=O)C(=O)N1 (stereo partly drawn) [GS-272, 5-(((trans-3-(4-(3-Chloropyridin-2-yl)-3-cyclopropyl-1H-pyrazol-1-yl)cyclobutyl)methyl)amino)-2-(2,6-dioxopiperidin-3-yl)isoindoline-1,3-dione] | < 10 nM | < 10 nM | 10 to 100 nM | < 10 nM
18 | Nc1cccc(-c2cn([C@H]3C[C@H](CNc4ccc5c(c4)C(=O)N(C4CCC(=O)NC4=O)C5=O)C3)nc2C2CC2)n1 (stereo partly drawn) [GS-273, 5-(((trans-3-(4-(6-aminopyridin-2-yl)-3-cyclopropyl-1H-pyrazol-1-yl)cyclobutyl)methyl)amino)-2-(2,6-dioxopiperidin-3-yl)isoindoline-1,3-dione] | 100 to 1000 nM | 10 to 100 nM | > 1000 nM | 100 to 1000 nM
19 | O=C1CCC(N2C(=O)c3ccc(NC[C@H]4C[C@H](n5cc(-c6cccc(NC7CNC7)n6)c(C6CC6)n5)C4)cc3C2=O)C(=O)N1 (stereo partly drawn) [GS-274, 5-(((trans-3-(4-(6-(Azetidin-3-ylamino)pyridin-2-yl)-3-cyclopropyl-1H-pyrazol-1-yl)cyclobutyl)methyl)amino)-2-(2,6-dioxopiperidin-3-yl)isoindoline-1,3-dione] | > 1000 nM | > 1000 nM | > 1000 nM | > 1000 nM
20 | COc1ccc(-c2cn([C@H]3C[C@H](CNc4ccc5c(c4)C(=O)N(C4CCC(=O)NC4=O)C5=O)C3)nc2C2CC2)nc1 (stereo partly drawn) [GS-275, 5-(((trans-3-(3-Cyclopropyl-4-(5-methoxypyridin-2-yl)-1H-pyrazol-1-yl)cyclobutyl)methyl)amino)-2-(2,6-dioxopiperidin-3-yl)isoindoline-1,3-dione] | 10 to 100 nM | 10 to 100 nM | 100 to 1000 nM | 10 to 100 nM
21 | CN(C)c1ccc(-c2cn([C@H]3C[C@H](CNc4ccc5c(c4)C(=O)N(C4CCC(=O)NC4=O)C5=O)C3)nc2C2CC2)nc1 (stereo partly drawn) [GS-276, 5-(((trans-3-(3-Cyclopropyl-4-(5-(dimethylamino)pyridin-2-yl)-1H-pyrazol-1-yl)cyclobutyl)methyl)amino)-2-(2,6-dioxopiperidin-3-yl)isoindoline-1,3-dione] | 10 to 100 nM | < 10 nM | 100 to 1000 nM | 10 to 100 nM
